The values that follow are results of earlier work, collected in US8053472B2, “Use of the acetyl L-carnitine in association with the biotin for the treatment of patients with type 2 insulin-resistant diabetes mellitus” (Sigma-Tau Industrie Farmaceutiche Riunite S.p.A., priority 2001, dated 2011).

In the data set the test system is hypertriglyceridemic rats with noninsulin-dependent diabetes mellitus. The following applies: high doses of biotin added to the diet.

With `O=C(O)CCCC[C@@H]1SC[C@@H]2NC(=O)N[C@@H]21` [biotin], the “altered tolerance to glucose” value is “improves”.
